Results published in PMC12486440, “Design, synthesis, and in silico studies of new benzofuran–pyrazole hybrids as multi-kinase inhibitors with potential antiproliferative activity” (RSC Advances, 2025).

Columns and labels:
HL-60(TB) = settings: single dose 10 μM; leukemia
[1] = system: NCI 60 cancer cell line panel; assay: NCI 60 full panel summary; settings: single dose 10 μM; mean over the NCI 60 panel
CCRF-CEM = settings: single dose 10 μM; leukemia
K-562 = settings: single dose 10 μM; leukemia
MOLT-4 = settings: single dose 10 μM; leukemia
RPMI-8226 = settings: single dose 10 μM; leukemia
SR = settings: single dose 10 μM; leukemia
EKVX = settings: single dose 10 μM; non-small lung carcinoma
HOP-92 = settings: single dose 10 μM; non-small lung carcinoma
NCI-H226 = settings: single dose 10 μM; non-small lung carcinoma
NCI-H522 = settings: single dose 10 μM; non-small lung carcinoma
HCT-15 = settings: single dose 10 μM; colon cancer
HT29 = settings: single dose 10 μM; colon cancer
SF-268 = settings: single dose 10 μM; CNS cancer
SF-295 = settings: single dose 10 μM; CNS cancer
SF-539 = settings: single dose 10 μM; CNS cancer
SNB-19 = settings: single dose 10 μM; CNS cancer
MALME-3M = settings: single dose 10 μM; melanoma
M14 = settings: single dose 10 μM; melanoma
SK-MEL-28 = settings: single dose 10 μM; melanoma
SK-MEL-5 = settings: single dose 10 μM; melanoma
UACC-257 = settings: single dose 10 μM; melanoma
UACC-62 = settings: single dose 10 μM; melanoma
OVCAR-5 = settings: single dose 10 μM; ovarian carcinoma
786–0 = settings: single dose 10 μM; renal carcinoma
A498 = settings: single dose 10 μM; renal carcinoma
CAKI-1 = settings: single dose 10 μM; renal carcinoma
RXF 393 = settings: single dose 10 μM; renal carcinoma
SN12C = settings: single dose 10 μM; renal carcinoma
TK-10 = settings: single dose 10 μM; renal carcinoma
UO-31 = settings: single dose 10 μM; renal carcinoma
PC-3 = settings: single dose 10 μM; prostate carcinoma
MCF7 = settings: single dose 10 μM; breast carcinoma
BT-549 = settings: single dose 10 μM; breast carcinoma
T-47D = settings: single dose 10 μM; breast carcinoma
A549/ATCC = settings: single dose 10 μM; non-small lung carcinoma
HOP-62 = settings: single dose 10 μM; non-small lung carcinoma
NCI-H23 = settings: single dose 10 μM; non-small lung carcinoma
KM12 = settings: single dose 10 μM; colon cancer
SW-620 = settings: single dose 10 μM; colon cancer
SNB-75 = settings: single dose 10 μM; CNS cancer
LOX IMVI = settings: single dose 10 μM; melanoma
SK-MEL-2 = settings: single dose 10 μM; melanoma
SK-OV-3 = settings: single dose 10 μM; ovarian carcinoma
DU-145 = settings: single dose 10 μM; prostate carcinoma
MDA-MB-468 = settings: single dose 10 μM; breast carcinoma
OVCAR-8 = settings: single dose 10 μM; ovarian carcinoma
ACHN = settings: single dose 10 μM; renal carcinoma

SMILES | GI% (HL-60(TB)) | Mean GI% [1] | GI% (CCRF-CEM) | GI% (K-562) | GI% (MOLT-4) | GI% (RPMI-8226) | GI% (SR) | GI% (EKVX) | GI% (NCI-H226) | GI% (NCI-H522) | GI% (HCT-15) | GI% (SF-295) | GI% (SF-539) | GI% (SNB-19) | GI% (MALME-3M) | GI% (A498) | GI% (CAKI-1) | GI% (UO-31) | GI% (PC-3) | GI% (MCF7) | other results
CC(=O)N1N=C(c2nc3ccccc3[nH]2)CC1c1cn(-c2ccccc2)nc1-c1cc2ccccc2o1 (stereo not shown) [4d, 1-(5-(3-(Benzofuran-2-yl)-1-phenyl-1H-pyrazol-4-yl)-3-(1H-benzo[d]imidazol-2-yl)-4,5-dihydropyrazol-1-yl)ethanone] | 5.44% | 1.26% | 10.91% | 2.81% | 5.60% | 4.74% | 18.72% | 5.61% | 3.03% | 1.70% | 1.38% | 9.71% | 0.68% | 4.75% | 5.76% | 5.12% | 7.51% | 13.92% | 5.99% | 5.40% | GI% (HOP-92): 8.82%; GI% (HT29): 0.62%; GI% (SF-268): 1.38%; GI% (M14): 2.74%; GI% (SK-MEL-28): 1.16%; GI% (SK-MEL-5): 0.87%; GI% (UACC-257): 1.22%; GI% (UACC-62): 2.82%; GI% (OVCAR-5): 6.06%; GI% (786–0): 4.06%; GI% (RXF 393): 2.67%; GI% (SN12C): 6.54%; GI% (TK-10): 15.06%; GI% (BT-549): 9.21%; GI% (T-47D): 18.84%
COc1ccc(C2=NN(C(C)=O)C(c3cn(-c4ccccc4)nc3-c3cc4ccccc4o3)C2)cc1OC (stereo not shown) [4c, 1-(5-(3-(Benzofuran-2-yl)-1-phenyl-1H-pyrazol-4-yl)-3-(3,4-dimethoxyphenyl)-4,5-dihydropyrazol-1-yl)ethanone] | 12.17% | 2.51% | 9.93% | 7.80% | 8.51% | 11.35% | 16.71% | 2.78% | 1.68% | 1.54% | 2.45% | 4.33% | 1.95% | 6.15% | 3.54% | 3.05% | 13.64% | 11.00% | 3.89% | 8.83% | GI% (A549/ATCC): 2.60%; GI% (HOP-62): 3.35%; GI% (NCI-H23): 3.23%; GI% (KM12): 1.20%; GI% (SW-620): 4.67%; GI% (SF-268): 4.67%; GI% (SNB-75): 14.70%; GI% (LOX IMVI): 3.27%; GI% (SK-MEL-2): 1.30%; GI% (SK-MEL-5): 5.22%; GI% (UACC-257): 6.12%; GI% (OVCAR-5): 5.34%; GI% (SK-OV-3): 7.21%; GI% (786–0): 4.42%; GI% (SN12C): 10.86%; GI% (DU-145): 1.59%; GI% (BT-549): 3.97%; GI% (T-47D): 5.68%; GI% (MDA-MB-468): 8.49%
COc1ccc(C2=NNC(c3cn(-c4ccccc4)nc3-c3cc4ccccc4o3)C2)cc1 (stereo not shown) [3b, 3-(Benzofuran-2-yl)-4-(3-(4-methoxyphenyl)-4,5-dihydro-1H-pyrazol-5-yl)-1-phenyl-1H-pyrazole] | 2.83% | 0.8% | 17.25% | 7.50% | 8.04% | 7.55% | 7.24% | 0.52% | 1.48% | 0.82% | 1.12% | 1.43% | 4.09% | 2.46% | 4.88% | 2.47% | 17.83% | 26.14% | 12.08% | 2.03% | GI% (HOP-62): 4.32%; GI% (HOP-92): 3.27%; GI% (SNB-75): 0.28%; GI% (M14): 4.94%; GI% (UACC-62): 8.16%; GI% (OVCAR-8): 1.00%; GI% (SK-OV-3): 6.45%; GI% (ACHN): 5.79%; GI% (TK-10): 3.17%; GI% (BT-549): 4.37%; GI% (T-47D): 2.60%; GI% (MDA-MB-468): 7.03%
